Measurements taken from patent US9532569B2 (INSTITUT NATIONAL DE LA RECHERCHE AGRONOMIQUE, priority 2012, dated 2017).

Legend:
[1] = system: pea mutant rms1; assay: Inhibition of branching in the pea, application directly on the axillary bud; type: in vivo, Pisum sativum L.; settings: for bud growth inhibition (length of bud/branch at node 3, 8 days after treatment at node 3): Experiment 3, FIG. 5
Experimental: Generally, in the pea, the first two scales are considered to be the first two nodes, the cotyledonary node being node 0.
The rms1 mutant is an “SMS” signal biosynthesis mutant, repressing branching of the plant.
Tests for activity on the inhibition of branching were carried out in the following way.
The strigolactone-deficient rms1 (ccd8) pea mutants described in Beveridge et al., 1997, were used for the test (M3T884 line derived from the Térèse variety).
The activity of the compounds (IIa), (II′d) and (II′e) in accordance with the invention and of the comparative compound GR24 was evaluated at respective doses of 10 nM, 100 nM and 1 μM, by treatment at node 3. […]
24 plants were sown per treatment. 8 days after sowing, the treatment was carried out on the axillary bud at node 3, by application of 10 μl of each solution to be tested, directly on the bud, by means of a micropipette. The lateral outgrowths at nodes 1 and 2 were removed in order to encourage the growth of the axillary buds at the higher nodes. […]
The activity of the compounds (IIa), (IIb), (IIc), (II′d), (II′e) and (II′f) in accordance with the invention was evaluated at respective doses of 100 nM and 1 μM, by treatment at node 3.
For this, solutions containing each compound to be tested, in 1% acetone, 4% propylene glycol 1450 and 50% ethanol, were used.
The activity of the compounds (IIa), (IIIa), (IIIb) and (IIIc) in accordance with the invention, and also of GR24 as comparative compound, was evaluated at respective doses of 100 nM and 1 μM, by treatment at node 3, according to the protocol described above with reference to experiment 2.
A sample consisting only of the solvent, and without active compound, was also tested as negative control, termed “CTL 0”.
In this experiment, the activity of the compound (IIIa) in accordance with the invention, and also of GR24 as comparative compound, was evaluated at respective doses of 1 nM, 10 nM, 100 nM and 1 μM, by treatment at node 3, according to the protocol described above with reference to experiment 2, for doses of 10 nM, 100 nM and 1 μM of compounds.
A sample consisting only of the solvent, and without active compound (“CTL 0”) was also tested as a negative control. A nontreated (“NT”) control was also carried out.
(§1) A dose-response test for evaluating the activity of the compounds by deposition at node 3 was carried out according to the protocol described above with reference to experiment 2, for the compound in accordance with the invention (IIa) and for the comparative compounds GR24, Comp. 3 and Comp. 4. Concentrations of 10 nM, 100 nM and 1 μM were tested.
A sample consisting only of the solvent, and without active compound (“CTL 0”), was also tested as a negative control. A nontreated (“NT”) control was also carried out.
as §1, with “Comp. 5” for “Comp. 3”, “Comp. 6.” for “Comp. 4.”, “10 nM and” for “10 nM,”, “nM” for “nM and 1 μM”, “tested. […]” for “tested.”
The sprouting of the axillary buds at node 4 was measured 8 days after the treatment by means of a digital sliding caliper.
The activity of the compound (IIIa) in accordance with the invention on bud growth at node 3 was evaluated at a dose of 1000 nM by treatment at node 3. The GR24 compound was tested at the same concentration as comparative compound. […]

[2] = system: pea rms1 mutants; assay: Hydroponic culture test in pea; type: in vivo, Pisum sativum L.; settings: 8 days
Experimental: For this example, ramosus (rms1) hyperbranched pea (Pisum sativum L.) mutants were used.
More particularly, rms1 (rms1-10) hyperbranched mutant plants were used. The nutritive solution (100%) was prepared by adding the following macronutrients to 1000 l of water: HNO3 (0.28 l), (NH4)2HPO4 (120 g), Ca(NO3)2 (40 g), Mg(NO3)2 (140 g), KNO3 (550 g), (NH4)2MoO4 (0.05 g), H3BO3 (15 g), MnSO4.H2O (2 g), ZnSO4.7H2O (1 g), CuSO4.5H2O (0.25 g), Sequestrene® (10 g) (Fe-EDTA solution). The pea seeds were germinated in moist sand for 6 days, then placed in holes of a lid (35 holes/lid, 20 mm in diameter) of an opaque PVC pot containing the hydroponic culture solution (47 l, pH 5.8).
In a first experiment, acetone or the compound to be tested (dissolved in acetone) was added to the hydroponic culture solution so as to obtain a final concentration of 0 or 1 μM of compound to be tested and 0.01% of acetone.
The hydroponic culture solution was continually aerated by means of an aquarium pump and replaced each week. 8 days after the start of the treatment, the lengths of bud/branch (nodes 1 to 6) were measured with an electronic sliding caliper.
This experiment was carried out for the compounds according to the invention (IIa) and (IIIb), and also the GR24 compound as comparative compound. A negative control (<<CTL 0>>), corresponding to a treatment with the solvent alone, was also carried out.
The results (mean data on 20 plants), in terms of, on the one hand, length of the branches at nodes 3 to 5 and, on the other hand, plant height, are shown respectively in FIGS. 11 and 12.
The same experiment was carried out for the compound in accordance with the invention (II″g) and the comparative compound GR24. Dimethyl sulfoxide (DMSO) or the compound to be tested, dissolved in DMSO, was added to the hydroponic culture solution so as to obtain a final concentration of 0 or 3 μM of compound to be tested and 0.01% of DMSO.
The results (mean data on 10 to 12 plants), in terms, on the one hand, of length of the branches at nodes 3 to 4 and, on the other hand, of plant height, are shown respectively in FIGS. 13 and 14.

[3] = system: MRC5 cells; assay: In vitro cytotoxicity study on MRC5 cells (MTS); type: cell-based, human; settings: Homo sapiens, MRC5, 72 hours, ± standard error, read-out: Percentage inhibition of MRC5 cell growth; for inhibition at 100 µM: 10^−4M; for inhibition at 10 µM: 10^−5M
Experimental: The cytotoxicity of the compound (IIa) according to the invention, and that of GR24 and of GR5 as comparative compounds, was evaluated in vitro, at concentrations of 10^−4 M and 10^−5 M, on MRC5 cells, in DMSO, in the following way.
MRC5 cells (human lung (fibroblasts) were cultured in Dulbecco's modified Eagle medium (DMEM) supplemented with: 25 mM of glucose, 10% (v/v) of fetal calf serum, 100 IU of penicillin, 100 μg/ml of streptomycin and 1.5 μg/ml of fungizone, and kept under 5% of CO2 at 37° C.
96-well plates were seeded with 2100 MRC5 cells per well in 200 μl of medium. After 24 hours, each of the compounds dissolved in DMSO was added for 72 hours, at a final concentration of 10^−4 M or 10^−5 M in a fixed volume of DMSO. The controls received an equal volume of DMSO.
The viable cell number was measured at 490 nm with the MTS reagent (Promega), and, for each compound, the concentration causing 50% inhibition of cell growth, IC50, was calculated.

[4] = system: Orobanche cumana; assay: Germinative activity on parasitic plants; type: in vivo; settings: counted after 4 days
Experimental: (§2) In this example, the germinative activity of the compounds in accordance with the invention (IIa) and (IIIb) and of the comparative compound GR24 was evaluated on the parasitic plants: Orobanche cumana, Orobanche minor, Striga hermonthica, Phelipanche ramosa (pv T and pv C).
(§3) The test protocol used was the following.
(§4) Seeds of Orobanche cumana Wallr. were collected from broomrapes parasitizing sunflower (Helianthus annuus L.), at Longeville-sur-mer, France, in 2009; seeds of clover broomrape (Orobanche minor Sm.) from a parasite of red clover (Trifolium pratense L.) were obtained from Professor K. Yoneyama (Utsunomiya University, Japan).
(§5) The seeds are stored dry in the dark at 25° C.
(§6) The compounds to be studied were resuspended in acetone at 10 mmol·l^−1, then diluted with water to 1 mmol·l^−1 (water/acetone; v/v; 99/1). Dilutions of 1×10^−3 mol·l^−1 to 1×10^−15 mol·l^−1 were then prepared in a water/acetone mixture (v/v; 99/1). Seeds of parasitic plants were surface-sterilized according to the protocol described in the publication by Vieira Dos Santos et al. (2003), then resuspended in sterile water (10 g·l^−1) and distributed on a 96-well plate (in a proportion of 50 μl, i.e. approximately 100 seeds per well). After preconditioning (7 days, 21° C., in the dark, plate hermetically sealed, except for the seeds of S. hermonthica, which were preconditioned at 30° C.), the compounds to be studied were added and the volumes adjusted to 100 μl with water (water/acetone; v/v; 999/1).
(§7) In a plate, a range of concentrations from 10^−13 mol·l^−1 to 10^−6 mol·l^−1 was applied for GR24 and (IIa) and from 10^−12 to 10^−5 mol·l^−1 for (IIIb). Controls were carried out with a water/acetone mixture (v/v; 999/1) and without seeds. The plates were incubated so as to allow germination (21° C., in the dark or 30° C. for Striga hermonthica.). After 4 days, the seeds which had germinated were counted under a stereomicroscope (SZX10, Olympus). The seeds were considered to have germinated when the radicle was sticking out of the seed tegument. Each germination test was repeated at least 3 times. For each compound tested, dose-response curves (g=f(c), where g is the germination percentage and c the concentration (mol·l^−1)), and the EC50 (median effective concentration) were modeled on the basis of a 4-parameter logistic curve calculated with SigmaPlot® 10.0.
(§8) The percentages of maximum germination induced by the compounds tested for each parasitic plant were determined.

[5] = system: Orobanche minor; assay: Germinative activity on parasitic plants; type: in vivo; settings: counted after 4 days
Experimental: as §2, §3, §4, §5, §6, §7, §8

[6] = system: Striga hermonthica; assay: Germinative activity on parasitic plants; type: in vivo; settings: counted after 4 days, 30° C.
Experimental: as §2, §3
Seeds of Striga hermonthica (Del.) Benth were collected at Gadarif, Eastern Sudan, in 1999.
as §5, §6
as §7, with “The seeds were considered to have germinated when the radicle was sticking out of the seed tegument. Each germination test was repeated at least 3 times.” left out
as §8

[7] = system: Phelipanche ramosa pv T; assay: Germinative activity on parasitic plants; type: in vivo; settings: counted after 4 days
Experimental: as §2, §3
(§9) Two populations of Phelipanche ramosa were used in this study, pathovar (pv) C and T, described in the publication by Benharrat et al. (2005). Seeds of Phelipanche ramosa pathovar C were collected at Saint Martin de Fraigneau, France, on broomrapes parasitizing winter oilseed rape (Brassica napus L.) in 2005 and seeds of Phelipanche ramosa pathovar T were collected in Sarthe, France, on broomrapes developing on hemp (Cannabis sativa L.) in 2007.
as §5, §6, §7, §8

[8] = system: Phelipanche ramosa pv C; assay: Germinative activity on parasitic plants; type: in vivo; settings: counted after 4 days
Experimental: as §2, §3, §9, §5, §6, §7, §8

[9] = Experiment 2, FIG. 4, 100 nM and 1 μM
[10] = Experiment 1, FIG. 3, concentration of 1 μM

CC1=C(C)C(Sc2ccc(Br)cc2)OC1=O (stereo not shown)
inhibitory activity on bud growth (length of bud/branch at node 3, 8 days after treatment at node 3) [1, 9]: most active

CC(C=O)=COC1OC(=O)C(C)=C1C (stereo not shown) [Compound (IIIa), 3-((3,4-dimethyl-5-oxo-2,5-dihydrofuran-2-yl)oxy)-2-methylacrylaldehyde]
bud growth inhibition (length of bud/branch at node 3, 8 days after treatment at node 3) ([1]; 100 nM and 1 μM): slightly less active, exhibit, however, a high activity in terms of bud growth inhibition | inhibitory activity on bud growth at node 3 (length of bud/branch 8 days after treatment at node 3) ([1]; Experiment 8, FIG. 10, 1000 nM): although less than that of GR24, is highly significant

C=C/C(C)=C/OC1OC(=O)C(C)=C1C (stereo not shown) [Compound (IIIc), (E)-3,4-dimethyl-5-((2-methylbuta-1,3-dien-1-yl)oxy)furan-2(5H)-one]
bud growth inhibition (length of bud/branch at node 3, 8 days after treatment at node 3) ([1]; 100 nM and 1 μM): slightly less active, exhibit, however, a high activity in terms of bud growth inhibition

CC1=C(C)C(Sc2ccc(C(F)(F)F)cc2)OC1=O (stereo not shown) [Compound (IIc), 3,4-dimethyl-5-((4-(trifluoromethyl)phenyl)thio)furan-2(5H)-one]
inhibitory activity on bud growth (length of bud/branch at node 3, 8 days after treatment at node 3) [1, 9]: most active

CC1=C(C)C(Oc2ccc(Cl)cc2)OC1=O (stereo not shown) [Compound (II′d), 5-(4-chlorophenoxy)-3,4-dimethylfuran-2(5H)-one]
inhibitory activity on bud growth (length of bud/branch at node 3, 8 days after treatment at node 3) [1, 10]: exhibit an inhibitory activity on bud growth at node 3

CC1=C(C)C(Oc2ccc(Br)cc2)OC1=O (stereo not shown) [Compound (II′e), 5-(4-bromophenoxy)-3,4-dimethylfuran-2(5H)-one]
inhibitory activity on bud growth (length of bud/branch at node 3, 8 days after treatment at node 3) [1, 10]: exhibit an inhibitory activity on bud growth at node 3

CC1=C(C)C(Oc2ccc3ccc(=O)oc3c2)OC1=O (stereo not shown) [Compound (II″g), 7-[3,4-dimethylfuran-2(5H)-one]oxycoumarin]
length of the branches at nodes 3 to 4 ([2]; 3 μM in hydroponic culture solution, FIG. 13): an activity on all the branches of nodes 3 to 4, and also an effect on plant height, which are both greater than those of the comparative compound GR24 | plant height ([2]; 3 μM in hydroponic culture solution, FIG. 14): an effect on plant height, which are both greater than those of the comparative compound GR24

CC1=CC(O/C=C2\CCOC2=O)OC1=O (stereo not shown) [GR5]
inhibition at 100 µM [3]: 66 ± 1% | inhibition at 10 µM [3]: 0%

CC1=CC(O/C=C2/C(=O)OC3c4ccccc4C[C@H]23)OC1=O (stereo partly shown) [GR24, reference compound]
Percentage of maximum germination induced [4]: 78 ± 5% | Percentage of maximum germination induced [5]: 81 ± 5% | inhibition at 100 µM [3]: 97 ± 1% | inhibition at 10 µM [3]: 0% | Percentage of maximum germination induced [6]: 57 ± 5% | plant height ([2]; 1 μM in hydroponic culture solution, FIG. 12): significant effect on plant height is also demonstrated, comparable between the comparative compound GR24 and the compound in accordance with the invention (IIa) | Percentage of maximum germination induced [7]: 87 ± 7% | Percentage of maximum germination induced [8]: 89 ± 6%
